Source: patent publication US7825139B2, “Compounds and methods for selective inhibition of dipeptidyl peptidase-IV” (Forest Laboratories Holdings Limited (BM), priority 2005, dated 2010)

Legend:
[1] = system: Zucker Obese Fatty rats; test: Toxicity in rats, oral dosing; type: in vivo, rat; conditions: 5-10 mg/kg, 4-24 hrs post-dose, all Zucker Obese Fatty rats tested
Source text: Toxicity in Rats: The Zucker Diabetic Fatty (ZDF) rat model can be used to investigate the effects of the compounds of the invention on both the treatment and prevention of diabetes as rats of this sub-strain are initially pre-diabetic although they develop severe type 2 diabetes characterized by increased HbAl c levels over a period of 6 weeks. The same strain can be used to predict the clinical efficacy of other anti-diabetic drug types. For example, the model predicts the potency and limited clinical efficacy of thiazolidinedione insulin sensitizer compounds. The experimental protocol requires p.o. (oral gavage) administration of either vehicle or test article at indicated doses either QD or BID using a gastric feeding needle with a ball tip, without anesthesia, using hand restraint to adult rats which have been fasted overnight. Animals are monitored for clinical signs at 1, 2, 4 and 8 hour time intervals following the treatment regimen. Whole blood samples (to a maximum level of 10% of the total blood volume every 2 weeks) were collected from the animals from the retro-orbital sinus in accordance with the guidelines of the IACUC committee.
The expected therapeutic dose level could not be reached for the comparative compounds before acute toxicity was observed.

[2] = system: dogs; test: Toxicity in dogs, escalated oral dose study; type: in vivo; conditions: at 2.0 mg/kg, within 2-4 hours of dosing
Procedure: The 2.0 mg/kg dose of compound 19 correlated with the time above the DPP-VIII IC90 but not with the time above DPP-IX IC90. By comparison, a previously known selective inhibitor (compound 10 in U.S. patent application Ser. […]

[3] = target: T1, DPP-VIII (Homo sapiens, UniProt Q6V1X1); test: DPP-VIII IC50 assay (Ala-Pro AMC), selectivity versus DPP-IV; type: biochemical
T1 construct: The full length cDNAs for human DPP-VII, DPP-VIII, DPP-IX, and FAP were obtained from Open Biosystems; 6xHis (C); made in house
Source text: The term “selectivity ratio” refers to the IC50 value generated in a biochemical assay measuring inhibition of DPP-IV compared to the IC50 value generated in a biochemical assay measuring inhibition of another DPP family member (e.g. DPP-VII, DPP-VIII, DPP-IX or FAP) whereby the ratio is obtained by dividing the IC50 value of DPP-VII, DPP-VIII, DPP-IX or FAP by the IC50 value for DPP-IV.
Materials. S9 insect cells and Sf-900 II SFM media were from Invitrogen. Anti-FLAG M2 immunoaffinity gel was from Sigma. Gly-Pro-AMC, Lys-Pro AMC, and Ala-Pro AMC were from Enzyme Systems. IC50 calculations were performed by non-linear regression analysis using Prism software (GraphPad). Preparation of DPP-VII, DPP-VIII, DPP-IX, and FAP baculovirus constructs. The full length cDNAs for human DPP-VII, DPP-VIII, DPP-IX, and FAP were obtained from Open Biosystems. […] Baculovirus was prepared using the Bac-to-Bac Baculovirus Expression System (Invitrogen). The cDNAs in the final baculovirus constructs were sequence verified. Baculovirus expression. […] Infection with DPP-VII, DPP-VIII, DPP-IX, and FAP baculoviral constructs were all performed at an MOI of 4. The infected cells were grown for 48 hours and the cell pellets harvested and frozen until purification. DPP-VII was purified using anti-FLAG immunoaffinity gel according to the manufacturer's instructions. DPP-VIII, DPP-IX, and FAP were purified using a B-PER 6xHis Fusion Protein Column Purification Kit from Pierce. IC50 assay. Recombinant DPPs were diluted in reaction buffer to give fluorescence values of 5000-20000 counts in the “enzyme only wells” 20 min after addition of substrate at 27° C. Reaction buffers were 25 mM (2-(4-Morpholino)-Ethane Sulfonic Acid), pH 5.5 for DPP-VII, 25 mM Tris, pH 8, 1% Triton X-100, 100 mM NaCl for DPP-VIII, and 25 mM Tris pH 8 for DPP-1× and FAP. Test wells in a 96-well microtiter plate contained 88 μL of diluted DPP and 2.5 ul of titrated compound in 50 mM glycine, pH 2.6. “Enzyme only” wells contained 88 uL of diluted DPP and 2.5 ul of glycine buffer. “No enzyme” wells contained 88 uL of reaction buffer without DPP and 2.5 ul of glycine buffer. All assays were done in triplicate. The plate was incubated at 27° C. for 10 min and then cooled on ice for 10 min. Ten microliters of substrate diluted in reaction buffer (40 uM final concentration) without Triton or NaCl were then added to all wells followed by incubation at 27C for 20 min. Substrates were Lys-Pro AMC for DPP-VII, and Ala-Pro AMC for DPP-VIII, DPP-IX, and FAP. Fluorescence in each well was measured at settings of 380/460 nm.

T1 sequence (Q6V1X1 whole entry): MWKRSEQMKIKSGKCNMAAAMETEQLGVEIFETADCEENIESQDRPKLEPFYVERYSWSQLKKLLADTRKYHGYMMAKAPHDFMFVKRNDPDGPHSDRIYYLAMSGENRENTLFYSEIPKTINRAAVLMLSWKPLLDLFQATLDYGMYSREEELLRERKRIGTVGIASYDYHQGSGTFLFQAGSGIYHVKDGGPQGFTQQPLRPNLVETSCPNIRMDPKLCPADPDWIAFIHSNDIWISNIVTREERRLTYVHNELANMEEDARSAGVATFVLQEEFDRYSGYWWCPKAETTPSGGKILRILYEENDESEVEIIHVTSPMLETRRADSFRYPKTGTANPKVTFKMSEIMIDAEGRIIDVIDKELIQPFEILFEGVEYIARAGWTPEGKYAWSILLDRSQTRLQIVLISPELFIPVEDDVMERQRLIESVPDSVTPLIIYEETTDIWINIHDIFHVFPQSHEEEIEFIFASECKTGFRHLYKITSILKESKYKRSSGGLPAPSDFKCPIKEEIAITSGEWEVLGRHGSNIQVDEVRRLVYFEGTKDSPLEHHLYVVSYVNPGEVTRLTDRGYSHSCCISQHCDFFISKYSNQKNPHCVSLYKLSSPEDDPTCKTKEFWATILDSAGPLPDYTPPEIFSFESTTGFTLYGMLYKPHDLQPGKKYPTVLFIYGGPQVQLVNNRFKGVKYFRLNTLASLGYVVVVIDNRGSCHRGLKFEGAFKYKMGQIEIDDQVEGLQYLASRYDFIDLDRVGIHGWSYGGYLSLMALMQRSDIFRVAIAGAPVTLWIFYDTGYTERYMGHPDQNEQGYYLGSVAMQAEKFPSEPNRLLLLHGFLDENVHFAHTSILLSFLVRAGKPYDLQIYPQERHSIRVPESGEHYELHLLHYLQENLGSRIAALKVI

## O=C(CNC1CCCC1)N1CCC[C@H]1B(O)O [Compound 19]
[1]
  acute toxicity in rats: acute toxicity (death)
[2]
  toxicity in dogs: severe emesis and diarrhea
[3]
  inhibition of DPP-VIII (in words): potent inhibitor
